Test results taken from patent publication US20250289789A1, “REVERSIBLE LYSINE COVALENT MODIFIERS OF CDK2 AND USES THEREOF” (Terremoto Biosciences, Inc., priority 2023, published 2025).
Read-outs that look alike come from different tables or passages of the source.

What was measured:
Format in all cases: cell-based
[1] = molecular target: T1, CDK1-NanoLuc fusion with CCNB1 in 293T or 293 cells (Homo sapiens, UniProt P06493); test: NanoBRET Target Engagement (TE) Intracellular Kinase Assay, CDK1/CCNB1; conditions: NanoBRET TE intracellular kinase assay, 2-hour incubation, read-out: NanoBRET-CDK1/B1 IC50
T1 construct: host or cells: 293T (ATCC CRL-3216) or 293 (ATCC CRL-1573)
T1 sequence (P06493 whole entry, the tested form may be a part): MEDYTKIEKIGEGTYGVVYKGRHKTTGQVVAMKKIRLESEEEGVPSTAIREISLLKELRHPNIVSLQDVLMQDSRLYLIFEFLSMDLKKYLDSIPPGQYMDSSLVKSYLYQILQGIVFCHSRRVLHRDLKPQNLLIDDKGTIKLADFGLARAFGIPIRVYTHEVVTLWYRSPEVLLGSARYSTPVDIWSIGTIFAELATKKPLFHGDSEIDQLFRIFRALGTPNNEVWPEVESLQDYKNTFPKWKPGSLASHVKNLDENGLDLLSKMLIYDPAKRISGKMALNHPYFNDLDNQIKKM
T1 sequence (P14635 whole entry partner, the tested form may be a part): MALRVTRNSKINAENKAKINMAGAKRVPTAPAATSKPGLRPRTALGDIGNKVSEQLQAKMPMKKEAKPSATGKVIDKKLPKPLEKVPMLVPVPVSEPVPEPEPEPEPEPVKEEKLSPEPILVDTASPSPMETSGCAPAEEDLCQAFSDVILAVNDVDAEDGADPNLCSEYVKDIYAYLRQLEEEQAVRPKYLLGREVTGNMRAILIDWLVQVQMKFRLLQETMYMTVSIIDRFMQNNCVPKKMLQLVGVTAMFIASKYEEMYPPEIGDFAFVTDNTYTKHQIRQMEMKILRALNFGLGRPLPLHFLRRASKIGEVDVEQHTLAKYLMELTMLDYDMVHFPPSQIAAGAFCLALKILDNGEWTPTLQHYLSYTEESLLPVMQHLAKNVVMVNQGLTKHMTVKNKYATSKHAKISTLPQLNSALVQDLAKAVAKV
Method in brief: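 IC50 derived by four-parameter logistic fit of DMSO-normalized acceptor/donor (610/450 nm) BRET ratio. Compound and Tracer K-10 were applied together for 2 h at 37° C to 293 or 293T cells transfected 24 h earlier with CDK1-NanoLuc fusion and cyclin B1.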

[2] = molecular target: T2, CDK2-NanoLuc fusion with CCNE1 in 293T or 293 cells (Homo sapiens, UniProt P24941); test: NanoBRET Target Engagement (TE) Intracellular Kinase Assay, CDK2/CCNE1; conditions: NanoBRET TE intracellular kinase assay, 2-hour incubation, read-out: NanoBRET-CDK2/E1 IC50
T2 construct: host or cells: 293T (ATCC CRL-3216) or 293 (ATCC CRL-1573)

[3] = molecular target: T3, CDK4-NanoLuc fusion with CCND1 in 293T or 293 cells (Homo sapiens, UniProt P11802); test: NanoBRET Target Engagement (TE) Intracellular Kinase Assay, CDK4/CCND1; conditions: NanoBRET TE intracellular kinase assay, 2-hour incubation, read-out: NanoBRET-CDK4/D1 IC50
T3 construct: host or cells: 293T (ATCC CRL-3216) or 293 (ATCC CRL-1573)
T3 sequence (P11802 whole entry, the tested form may be a part): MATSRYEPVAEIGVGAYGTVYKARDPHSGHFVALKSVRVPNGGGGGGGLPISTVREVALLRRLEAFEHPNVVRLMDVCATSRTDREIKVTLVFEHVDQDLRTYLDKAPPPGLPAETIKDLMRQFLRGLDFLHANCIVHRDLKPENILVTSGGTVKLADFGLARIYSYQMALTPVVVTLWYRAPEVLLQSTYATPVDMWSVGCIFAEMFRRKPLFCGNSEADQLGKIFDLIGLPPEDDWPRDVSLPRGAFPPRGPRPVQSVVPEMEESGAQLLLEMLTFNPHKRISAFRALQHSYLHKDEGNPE
T3 sequence (P24385 whole entry partner, the tested form may be a part): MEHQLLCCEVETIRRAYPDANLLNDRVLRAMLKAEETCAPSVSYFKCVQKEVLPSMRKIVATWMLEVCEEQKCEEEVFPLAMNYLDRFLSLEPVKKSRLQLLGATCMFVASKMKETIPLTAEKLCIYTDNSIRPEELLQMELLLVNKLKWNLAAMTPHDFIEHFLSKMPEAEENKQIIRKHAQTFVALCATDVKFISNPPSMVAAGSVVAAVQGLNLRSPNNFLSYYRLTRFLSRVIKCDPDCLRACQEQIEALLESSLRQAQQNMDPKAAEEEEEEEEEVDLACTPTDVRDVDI

[4] = system: Phospho-Rb Ser807/811 in OVCAR3 cells; test: OVCAR3 Phospho-Rb Ser807/811 HTRF assay; conditions: OVCAR3 cells, Phospho-Rb Ser807/811 HTRF, 1 hour incubation, read-out: pRb-OVCAR3 IC50
Method: Cells were trypsinized and resuspended in 1 mM hydroxyurea (Sigma; H8627), 90% RPMI and 10% fetal bovine serum. […] Dose response curve normalized to DMSO control was plotted using four-parameter logistic model for IC50 calculation.

Structure (SMILES)	IC50 [1] [nM]	IC50 [2] [nM]	IC50 [3] [nM]	IC50 ([4]; Homo sapiens, OVCAR-3, 1 h) [nM]	IC50 [4] [nM]
COc1cc(OC)c2c(c1C=O)C[C@H](C(=O)Nc1cc([C@H]3C[C@@H](OC(=O)NC(C)C)C3)[nH]n1)C2 [Compound 214]	155	56.8	> 3460	375	–
COc1cc(O)c(C=O)c(OCC(=O)Nc2cc([C@H]3CC[C@@H](OC(=O)N4C[C@@H]5CC[C@H]4C5)C3)[nH]n2)c1 [Compound 219]	4.23	1.95	844	22.6	–
COc1cc(O)c(C=O)c(OCC(=O)Nc2cc([C@H]3CC[C@@H](OC(=O)N4C5CCCC4C5)C3)[nH]n2)c1 [Compound 220]	8.36	2.89	1460	32.1	–
C#C[C@@H]1CCCN1C(=O)O[C@@H]1CC[C@H](c2cc(NC(=O)COc3cc(OC)cc(O)c3C=O)n[nH]2)C1 [Compound 222]	7.61	3.84	2830	63.7	–
COc1cc(O)c(C=O)c(OCC(=O)Nc2cc([C@H]3CC[C@@H](OC(=O)N4CC5CC(C5)C4)C3)[nH]n2)c1 [Compound 226]	9.17	2.45	3060	63.7	–
COc1cc(OC)c(C=O)c(OCC(=O)Nc2cc([C@H]3CC[C@@H](OC(=O)N4CCC4(C)C)C3)[nH]n2)c1 [Compound 227]	0.61	1.73	1290	18.1	–
COc1cc(O)c(C=O)c(OCC(=O)Nc2cc([C@H]3CC[C@@H](OC(=O)N4CC5CC4C5)C3)[nH]n2)c1 [Compound 228]	4.25	2.27	4170	34.4	–
COc1cc(O)c(C=O)c(OCC(=O)Nc2cc([C@H]3CC[C@@H](OC(=O)N4C5CCC4CC5)C3)[nH]n2)c1 [Compound 229]	1.97	1.75	1900	28.8	–
COc1cc(O)c(C=O)c(OCC(=O)Nc2cc([C@H]3CC[C@@H](OC(=O)N4CCOCC4)C3)[nH]n2)c1 [Compound 230]	21	2.85	> 10000	57.8	–
COc1cc(O)c(C=O)c(OCC(=O)Nc2cc([C@H]3CC[C@@H](OC(=O)N4C5COCC4C5)C3)[nH]n2)c1 [Compound 231, (1R,3S)-3-{5-[2-(2-formyl-3-hydroxy-5-methoxyphenoxy)acetamido]-2H-pyrazol-3-yl}cyclopentyl 3-oxa-6-azabicyclo[3.1.1]heptane-6-carboxylate]	< 2.64	3.2	1430	18.5	–
COc1cc(O)c(C=O)c(OCC(=O)Nc2cc([C@H]3CC[C@@H](OC(=O)N4CCCC45CC5)C3)[nH]n2)c1 [Compound 232]	4.84	2.18	2300	40.2	–
COc1cc(O)c(C=O)c(OCC(=O)Nc2cc([C@H]3CC[C@@H](OC(=O)N4CC[C@H](F)C4)C3)[nH]n2)c1 [Compound 233]	2.19	2.47	2690	22.1	–
COc1cc(O)c(C=O)c(OCC(=O)Nc2cc([C@H]3CC[C@@H](OC(=O)N4CC5CC(C4)O5)C3)[nH]n2)c1 [Compound 235]	48.5	7.6	> 10000	121	–
COc1cc(O)c(C=O)c(OCC(=O)Nc2cc([C@H]3CC[C@@H](OC(=O)N4CC[C@@H]5C[C@@H]54)C3)[nH]n2)c1 [Compound 236]	12.8	1.9	4250	32.2	–
COc1cc(O)c(C=O)c(OCC(=O)Nc2cc([C@H]3CC[C@@H](OC(=O)N4CC5CC5C4)C3)[nH]n2)c1 (stereo partly drawn) [Compound 237]	11.6	1.79	4960	55.7	–
COc1cc(O)c(C=O)c(OCC(=O)Nc2cc([C@H]3CC[C@@H](OC(=O)N4CC[C@H](OC)C4)C3)[nH]n2)c1 [Compound 242]	13.1	5.05	> 10000	66.9	–

Results, then the compound that gave them:

IC50 [1] [nM]	IC50 [2] [nM]	IC50 [3] [nM]	IC50 ([4]; Homo sapiens, OVCAR-3, 1 h) [nM]	IC50 [4] [nM]	Structure (SMILES)
6.31	2.98	1070	21.8	–	COc1cc(O)c(C=O)c(OCC(=O)Nc2cc([C@H]3CC[C@@H](OC(=O)N4[C@@H](C)COC[C@@H]4C)C3)[nH]n2)c1 [Compound 212]
30.1	4.72	> 10000	35.6	–	COCCNC(=O)O[C@@H]1CC[C@H](c2cc(NC(=O)COc3cc(OC)cc(O)c3C=O)n[nH]2)C1 [Compound 213]
20.6	10.3	> 6270	41.5	–	COc1cc(O)c(C=O)c(OCC(=O)Nc2cc([C@H]3CC[C@@H](OC(=O)NC4(C#N)CC4)C3)[nH]n2)c1 [Compound 215]
15	4.44	9910	64.6	–	C#C[C@H](C)NC(=O)O[C@@H]1CC[C@H](c2cc(NC(=O)COc3cc(OC)cc(O)c3C=O)n[nH]2)C1 [Compound 216]
44.7	2.98	> 10000	60.9	–	COc1cc(O)c(C=O)c(OCC(=O)Nc2cc([C@H]3CC[C@@H](OC(=O)NN4CCCC4)C3)[nH]n2)c1 [Compound 217]
5.53	2.33	2900	18.2	–	C#CC1(NC(=O)O[C@@H]2CC[C@H](c3cc(NC(=O)COc4cc(OC)cc(O)c4C=O)n[nH]3)C2)CC1 [Compound 218]
8.56	1.71	5250	24.1	–	CCCNC(=O)O[C@@H]1CC[C@H](c2cc(NC(=O)COc3cc(OC)cc(O)c3C=O)n[nH]2)C1 [Compound 221]
13.1	4.13	> 10000	–	65.6	COc1cc(O)c(C=O)c(OCC(=O)Nc2cc([C@H]3C[C@@H](OC(=O)NC(C)C)C3)[nH]n2)c1 [Compound 223]
28.9	2.64	> 10000	93.6	–	COc1cc(O)c(C=O)c(OCC(=O)Nc2cc([C@H]3CC[C@@H](OC(=O)N4CCCO4)C3)[nH]n2)c1 [Compound 224]
5.09	2.49	2600	18.7	–	CCCN(C)C(=O)O[C@@H]1CC[C@H](c2cc(NC(=O)COc3cc(OC)cc(O)c3C=O)n[nH]2)C1 [Compound 225]
9.82	1.64	4100	32.8	–	COc1cc(O)c(C=O)c(OCC(=O)Nc2cc([C@H]3CC[C@@H](OC(=O)N4CC[C@H](C)C4)C3)[nH]n2)c1 [Compound 238]
2.14	1.89	846	13.1	–	COc1cc(O)c(C=O)c(OCC(=O)Nc2cc([C@H]3CC[C@@H](OC(=O)N4CCC4(C)C)C3)[nH]n2)c1 [Compound 239, (1R,3S)-3-(3-(2-(2-formyl-3-hydroxy-5-methoxyphenoxy)acetamido)-1H-pyrazol-5-yl)cyclopentyl 2,2-dimethylazetidine-1-carboxylate]
7.4	1.54	2800	22.1	–	COc1cc(O)c(C=O)c(OCC(=O)Nc2cc([C@H]3CC[C@@H](OC(=O)N4CC[C@@H](F)C4)C3)[nH]n2)c1 [Compound 240]
22.9	3.05	3850	77.6	–	COc1cc(O)c(C=O)c(OCC(=O)Nc2cc([C@@H]3CCC(OC(=O)N4CCCC4)C3)[nH]n2)c1 (stereo partly drawn) [Compound 241]
